Data on two molecules can be found in article PMC8091729 (Bioorganic & Medicinal Chemistry Letters, 2021).

The test system of one experiment is SARS-CoV-2. The experiment is described as follows: Image-based antiviral assay. Format: cell-based. To be noted: CC50/EC50.
A further experiment concerns COVID-19. To be noted: patients with COVID-19; cited from earlier work.

Turning to `O=C(Cn1c2ccccc2n2c(=O)cc(-c3ccc(Cl)cc3)nc12)Nc1ccc(F)cc1F` [Compound 7], the selectivity index entry in the experiment with SARS-CoV-2 is recorded as “more than 10”.
Consider `CCC(CC)COC(=O)[C@H](C)N[P@](=O)(OC[C@H]1O[C@@](C#N)(c2ccc3c(N)ncnn23)[C@H](O)[C@@H]1O)Oc1ccccc1` [Remdesivir], for which the “benefit in clinical trials” value with COVID-19 is 68%.
